Patent US12139492B2 (Endotarget Inc., priority 2021, dated 2024)
Where two headings read alike, the source gives them in different places.

Key:
Mino cells = assay: Antiproliferative effect, MTS cell viability assay, Mino cells; assay type: cell-based; conditions: Homo sapiens, MINO, Mino mantle cell lymphoma cells; read-out: IC50 (anti-proliferation) Mino cells
How it was run: (§1)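 Steps: seed B-cell lymphoma line; add compound at 0, 0.001, 0.01, 0.1, 1 or 10 μM; incubate 72 h; add MTS and read reduced tetrazolium (formazan) absorbance at 490 nm.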

JeKo-1 cells = assay: Antiproliferative effect, MTS cell viability assay, JeKo-1 cells; assay type: cell-based; conditions: Homo sapiens; JeKo-1 mantle cell lymphoma cells; read-out: IC50 (anti-proliferation) JeKO-1 cells
How it was run: as §1

BTK = BTK (Homo sapiens, UniProt Q06187); assay: Degradation of BTK protein in Namalwa cells (Western blot; DC50, Dmax); conditions: for DC50: cell line not given
Sequence of BTK (Q06187 whole entry): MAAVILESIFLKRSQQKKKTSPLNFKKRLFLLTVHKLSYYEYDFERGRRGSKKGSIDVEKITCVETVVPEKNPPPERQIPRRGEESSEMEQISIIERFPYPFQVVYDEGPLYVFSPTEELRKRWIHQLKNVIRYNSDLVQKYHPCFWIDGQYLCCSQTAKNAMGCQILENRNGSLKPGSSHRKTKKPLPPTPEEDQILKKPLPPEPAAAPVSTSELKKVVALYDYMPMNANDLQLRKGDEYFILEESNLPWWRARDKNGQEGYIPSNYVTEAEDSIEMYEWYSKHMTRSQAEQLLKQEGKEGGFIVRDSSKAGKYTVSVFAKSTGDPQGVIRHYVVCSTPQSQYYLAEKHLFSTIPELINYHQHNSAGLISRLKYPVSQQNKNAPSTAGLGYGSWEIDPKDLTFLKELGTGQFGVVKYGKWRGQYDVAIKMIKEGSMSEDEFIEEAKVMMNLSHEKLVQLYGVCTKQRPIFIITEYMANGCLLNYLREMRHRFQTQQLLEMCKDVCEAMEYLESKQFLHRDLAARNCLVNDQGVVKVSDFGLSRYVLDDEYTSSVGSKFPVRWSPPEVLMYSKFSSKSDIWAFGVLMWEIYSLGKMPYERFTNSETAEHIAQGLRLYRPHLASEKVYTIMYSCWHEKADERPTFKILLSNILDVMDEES

[1] = read-out: DC50 (BTK degradation), concentration giving 50% reduction of BTK expression level
[2] = read-out: Dmax (BTK degradation)

Dmax (BTK)	DC50 (BTK; BTK degradation)	DC50 (BTK; [1])	Dmax (BTK; [2])	Compound	IC50 (Mino cells)	IC50 (JeKo-1 cells)
> 90%	0.01 to 0.05 µM			NC(=O)c1c(-c2ccc(Oc3ccccc3)cc2)nn2c1NCC[C@H]2C1CCN(C(=O)N2CCC(CN3CCC(c4ccc5c(c4)C(=O)N(C4CCC(=O)NC4=O)C5=O)CC3)CC2)CC1 (stereo partly drawn) [Compound 295, (7S)-7-(1-(4-((4-(2-(2,6-dioxopiperidin-3-yl)-1,3-dioxoisoindolin-5-yl)piperidin-1-yl)methyl)piperidine-1-carbonyl)piperidin-4-yl)-2-(4-phenoxyphenyl)-4,5,6,7-tetrahydropyrazolo[1,5-a]pyrimidine-3-carboxamide]	< 1 µM	1 to 10 µM
		0.01 to 0.05 µM	> 75%	NC(=O)c1c(-c2ccc(Oc3ccccc3)cc2)nn2c1NCC[C@H]2C1CCN(C2CCN(C(=O)N3CCC(CC4CCN(c5ccc6c(c5)C(=O)N(C5CCC(=O)NC5=O)C6=O)CC4)CC3)CC2)CC1 (stereo partly drawn) [Compound 393, (7S)-7-(1′-(4-((1-(2-(2,6-dioxopiperidin-3-yl)-1,3-dioxoisoindolin-5-yl)piperidin-4-yl)methyl)piperidine-1-carbonyl)-[1,4′-bipiperidin]-4-yl)-2-(4-phenoxyphenyl)-4,5,6,7-tetrahydropyrazolo[1,5-a]pyrimidine-3-carboxamide]	1 to 10 µM	1 to 10 µM
> 90%	0.01 to 0.05 µM			NC(=O)c1c(-c2ccc(Oc3ccccc3)cc2)nn2c1NCCC2C1CCN(CC2CCN(C(=O)N3CCC(N4CCN(c5ccc6c(c5)C(=O)N(C5CCC(=O)NC5=O)C6=O)CC4)CC3)CC2)CC1 (stereo not drawn) [Compound 363, 7-(1-((1-(4-(4-(2-(2,6-dioxopiperidin-3-yl)-1,3-dioxoisoindolin-5-yl)piperazin-1-yl)piperidine-1-carbonyl)piperidin-4-yl)methyl)piperidin-4-yl)-2-(4-phenoxyphenyl)-4,5,6,7-tetrahydropyrazolo[1,5-a]pyrimidine-3-carboxamide]	< 1 µM	1 to 10 µM
> 75%	0.01 to 0.05 µM			NC(=O)c1c(-c2ccc(Oc3ccccc3)cc2)nn2c1NCC[C@H]2C1CCN(C(=O)N2CCN(CCN3CCC(c4ccc5c(c4)C(=O)N(C4CCC(=O)NC4=O)C5=O)CC3)CC2)CC1 (stereo partly drawn) [Compound 303, (7S)-7-(1-(4-(2-(4-(2-(2,6-dioxopiperidin-3-yl)-1,3-dioxoisoindolin-5-yl)piperidin-1-yl)ethyl)piperazine-1-carbonyl)piperidin-4-yl)-2-(4-phenoxyphenyl)-4,5,6,7-tetrahydropyrazolo[1,5-a]pyrimidine-3-carboxamide]	1 to 10 µM	1 to 10 µM
		< 0.01 µM	> 90%	NC(=O)c1c(-c2ccc(Oc3ccccc3)cc2)nn2c1NCC[C@H]2C1CCN(CC2CCN(C(=O)N3CCC(CN4CCN(c5ccc6c(c5)CN(C5CCC(=O)NC5=O)C6=O)CC4)CC3)CC2)CC1 (stereo partly drawn) [Compound 410, (7S)-7-(1-((1-(4-((4-(2-(2,6-dioxopiperidin-3-yl)-1-oxoisoindolin-5-yl)piperazin-1-yl)methyl)piperidine-1-carbonyl)piperidin-4-yl)methyl)piperidin-4-yl)-2-(4-phenoxyphenyl)-4,5,6,7-tetrahydropyrazolo[1,5-a]pyrimidine-3-carboxamide]	1 to 10 µM	1 to 10 µM
> 90%	< 0.01 µM			NC(=O)c1c(-c2ccc(Oc3ccccc3)cc2)nn2c1NCCC2C1CCN(CC2CCN(C(=O)N3CCC(N4CCN(c5ccc6c(c5)CN(C5CCC(=O)NC5=O)C6=O)CC4)CC3)CC2)CC1 (stereo not drawn) [Compound 364, 7-(1-((1-(4-(4-(2-(2,6-dioxopiperidin-3-yl)-1-oxoisoindolin-5-yl)piperazin-1-yl)piperidine-1-carbonyl)piperidin-4-yl)methyl)piperidin-4-yl)-2-(4-phenoxyphenyl)-4,5,6,7-tetrahydropyrazolo[1,5-a]pyrimidine-3-carboxamide]	< 1 µM	< 1 µM
> 90%	0.01 to 0.05 µM			NC(=O)c1c(-c2ccc(Oc3ccccc3)cc2)nn2c1NCC[C@H]2C1CCN(C2CCN(C(=O)N3CCC(CN4CCN(c5ccc6c(c5)C(=O)N(C5CCC(=O)NC5=O)C6=O)CC4)CC3)CC2)CC1 (stereo partly drawn) [Compound 389, (7S)-7-(1′-(4-((4-(2-(2,6-dioxopiperidin-3-yl)-1,3-dioxoisoindolin-5-yl)piperazin-1-yl)methyl)piperidine-1-carbonyl)-[1,4′-bipiperidin]-4-yl)-2-(4-phenoxyphenyl)-4,5,6,7-tetrahydropyrazolo[1,5-a]pyrimidine-3-carboxamide]	1 to 10 µM	1 to 10 µM

The remaining lines, values behind:

Compound	Dmax (BTK)	DC50 (BTK; BTK degradation)	DC50 (BTK; [1])	Dmax (BTK; [2])	IC50 (Mino cells)	IC50 (JeKo-1 cells)
Nc1ncnc2c1c(-c1ccc(Oc3ccccc3)cc1)nn2C1CCN(C2CCN(CCN3CCC(c4ccc5c(c4)CN(C4CCC(=O)NC4=O)C5=O)CC3)CC2)CC1 (stereo not drawn) [Compound 220, 3-(5-(1-(2-(4-(4-amino-3-(4-phenoxyphenyl)-1H-pyrazolo[3,4-d]pyrimidin-1-yl)-[1,4′-bipiperidin]-1′-yl)ethyl)piperidin-4-yl)-1-oxoisoindolin-2-yl)piperidine-2,6-dione]	> 75%	0.01 to 0.05 µM			1 to 10 µM	1 to 10 µM
Nc1ncnc2c1c(-c1ccc(Oc3ccccc3)cc1)nn2C1CCN(C[C@@H]2CCN(C[C@H]3CCN(c4ccc5c(c4)C(=O)N(C4CCC(=O)NC4=O)C5=O)C3)C2)CC1 (stereo partly drawn) [Compound 447d, 5-((R)-3-(((S)-3-((4-(4-amino-3-(4-phenoxyphenyl)-1H-pyrazolo[3,4-d]pyrimidin-1-yl)piperidin-1-yl)methyl)pyrrolidin-1-yl)methyl)pyrrolidin-1-yl)-2-(2,6-dioxopiperidin-3-yl)isoindoline-1,3-dione]			0.01 to 0.05 µM	> 90%	1 to 10 µM	1 to 10 µM
Nc1ncnc2c1c(-c1ccc(Oc3ccccc3)cc1)nn2C1CCN(C2CCN(C(=O)N3CCC(CCN4CCC(c5ccc6c(c5)CN(C5CCC(=O)NC5=O)C6=O)CC4)CC3)CC2)CC1 (stereo not drawn) [Compound 254, 3-(5-(1-(2-(1-(4-(4-amino-3-(4-phenoxyphenyl)-1H-pyrazolo[3,4-d]pyrimidin-1-yl)-[1,4′-bipiperidine]-1′-carbonyl)piperidin-4-yl)ethyl)piperidin-4-yl)-1-oxoisoindolin-2-yl)piperidine-2,6-dione]	> 90%	< 0.01 µM			1 to 10 µM	1 to 10 µM
Nc1ncnc2c1c(-c1ccc(Oc3ccccc3)cc1)nn2C1CCN(CC2CCN(CC3CCN(c4ccc5c(c4)C(=O)N(C4CCC(=O)NC4=O)C5=O)CC3)CC2)CC1 (stereo not drawn) [Compound 199, 5-(4-((4-((4-(4-amino-3-(4-phenoxyphenyl)-1H-pyrazolo(3,4-d)pyrimidin-1-yl)piperidin-1-yl)methyl)piperidin-1-yl)methyl)piperidin-1-yl)-2-(2,6-dioxopiperidin-3-yl)isoindoline-1,3-dione]	> 90%	0.01 to 0.05 µM			< 1 µM	1 to 10 µM
Nc1ncnc2c1c(-c1ccc(Oc3ccccc3)cc1)nn2[C@@H]1CCCN(C(=O)NCCN2CCN(c3ccc4c(c3)C(=O)N(C3CCC(=O)NC3=O)C4=O)CC2)C1 (stereo partly drawn) [Compound 524, (3R)-3-(4-amino-3-(4-phenoxyphenyl)-1H-pyrazolo[3,4-d]pyrimidin-1-yl)-N-(2-(4-(2-(2,6-dioxopiperidin-3-yl)-1,3-dioxoisoindolin-5-yl)piperazin-1-yl)ethyl)piperidine-1-carboxamide]			< 0.01 µM	> 90%	< 1 µM	1 to 10 µM
